Data published in patent publication US4684664A, “Derivatives of β-(4-isocyano-1,2,3,4-diepoxycyclopentyl) acrylic acid” (Kureha Kagaku Kogyo Kabushiki Kaisha, priority 1984, dated 1987).
≈ marks a conversion by molar mass, not a printed value.

Legend:
Assay type in all cases: cell-based
[1] = test system: Staphylococcus aureus FDA 209PJc-1; test: Antibacterial activity, agar-dilution MIC, organism No. 1; settings: Staphylococcus aureus, FDA209PJC1; Organism No. 1, bouillon-agar; read-out: Minimum Inhibitory Concentration
Outline: (§1)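 Dilution in agar (bouillon-agar base) is the format; activity is expressed as MIC, μg per ml medium.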

[2] = test system: Staphylococcus aureus Terajima; test: Antibacterial activity, agar-dilution MIC, organism No. 2; settings: Staphylococcus aureus; Organism No. 2, bouillon-agar; read-out: Minimum Inhibitory Concentration
Outline: as §1

[3] = test system: Staphylococcus aureus MS 353; test: Antibacterial activity, agar-dilution MIC, organism No. 3; settings: Staphylococcus aureus, MS353; Organism No. 3, bouillon-agar; read-out: Minimum Inhibitory Concentration
Outline: as §1

[4] = test system: Streptococcus pyogenes Cook; test: Antibacterial activity, agar-dilution MIC, organism No. 4; settings: Streptococcus pyogenes; Organism No. 4, bouillon-agar; read-out: Minimum Inhibitory Concentration
Outline: as §1

[5] = test system: Escherichia coli NIHJ-JC-2; test: Antibacterial activity, agar-dilution MIC, organism No. 5; settings: Escherichia coli, NIHJJC2; Organism No. 5, bouillon-agar; read-out: Minimum Inhibitory Concentration
Outline: as §1

[6] = test system: Escherichia coli K12 C600 IAM 1264; test: Antibacterial activity, agar-dilution MIC, organism No. 6; settings: Escherichia coli, IAM1264; Organism No. 6, bouillon-agar; read-out: Minimum Inhibitory Concentration
Outline: as §1

[7] = test system: Klebsiella pneumoniae PCI-602; test: Antibacterial activity, agar-dilution MIC, organism No. 7; settings: Klebsiella pneumoniae, PCI602; Organism No. 7, bouillon-agar; read-out: Minimum Inhibitory Concentration
Outline: as §1

[8] = test system: Salmonella typhimurium IID 971; test: Antibacterial activity, agar-dilution MIC, organism No. 8; settings: Salmonella enterica; Organism No. 8, bouillon-agar; read-out: Minimum Inhibitory Concentration
Outline: as §1

Salmonella typhi 901 = test: Antibacterial activity, agar-dilution MIC, organism No. 9; settings: Salmonella enterica, TYPHI, read-out: Minimum Inhibitory Concentration
Outline: as §1

[9] = test system: Salmonella paratyphi-A 1015; test: Antibacterial activity, agar-dilution MIC, organism No. 10; settings: Salmonella enterica, PARATYPHI, read-out: Minimum Inhibitory Concentration
Outline: as §1

[10] = test system: Salmonella shottmuelleri 8006; test: Antibacterial activity, agar-dilution MIC, organism No. 11; settings: Salmonella, 8006; Organism No. 11, bouillon-agar; read-out: Minimum Inhibitory Concentration
Outline: as §1

[11] = test system: Salmonella enteritidis G 14; test: Antibacterial activity, agar-dilution MIC, organism No. 12; settings: Salmonella enterica, ENTERITIDIS; Organism No. 12, bouillon-agar; read-out: Minimum Inhibitory Concentration
Outline: as §1

[12] = test system: Serratia marcescens IAM 1184; test: Antibacterial activity, agar-dilution MIC, organism No. 13; settings: Serratia marcescens, IAM1184; Organism No. 13, bouillon-agar; read-out: Minimum Inhibitory Concentration
Outline: as §1

[13] = test system: Bacillus subtilis ATCC 6633; test: Antibacterial activity, agar-dilution MIC, organism No. 14; settings: Bacillus subtilis, ATCC6633; Organism No. 14, bouillon-agar; read-out: Minimum Inhibitory Concentration
Outline: as §1

[14] = test system: Pseudomonas aeruginosa IFO 3445; test: Antibacterial activity, agar-dilution MIC, organism No. 15; settings: Pseudomonas aeruginosa, IFO3445; Organism No. 15, bouillon-agar; read-out: Minimum Inhibitory Concentration
Outline: as §1

[15] = test system: Pseudomonas aeruginosa NCTC 10490; test: Antibacterial activity, agar-dilution MIC, organism No. 16; settings: Pseudomonas aeruginosa, NCTC10490; Organism No. 16, bouillon-agar; read-out: Minimum Inhibitory Concentration
Outline: as §1

[16] = test system: Pseudomonas aeruginosa PAO 1; test: Antibacterial activity, agar-dilution MIC, organism No. 17; settings: Pseudomonas aeruginosa, PAO1; Organism No. 17, bouillon-agar; read-out: Minimum Inhibitory Concentration
Outline: as §1

[17] = test system: Proteus morganii IFO 3848; test: Antibacterial activity, agar-dilution MIC, organism No. 18; settings: Morganella morganii, IFO3848; Organism No. 18, bouillon-agar; read-out: Minimum Inhibitory Concentration
Outline: as §1

[18] = test system: Proteus mirabilis IFO 3849; test: Antibacterial activity, agar-dilution MIC, organism No. 19; settings: Proteus mirabilis, IFO3849; Organism No. 19, bouillon-agar; read-out: Minimum Inhibitory Concentration
Outline: as §1

Proteus vulgaris OX-19 = test: Antibacterial activity, agar-dilution MIC, organism No. 20; settings: Proteus vulgaris, OX19; Organism No. 20, bouillon-agar; read-out: Minimum Inhibitory Concentration
Outline: as §1

Proteus vulgaris HX-19 = test: Antibacterial activity, agar-dilution MIC, organism No. 21; settings: Proteus vulgaris, HX19; Organism No. 21, bouillon-agar; read-out: Minimum Inhibitory Concentration
Outline: as §1

[19] = test system: Proteus rettgeri IFO 3850; test: Antibacterial activity, agar-dilution MIC, organism No. 22; settings: Providencia rettgeri, IFO3850; Organism No. 22, bouillon-agar; read-out: Minimum Inhibitory Concentration
Outline: as §1

[20] = test system: Enterobacter aerogenes ATCC 13048; test: Antibacterial activity, agar-dilution MIC, organism No. 23; settings: Klebsiella aerogenes, ATCC13048; Organism No. 23, bouillon-agar; read-out: Minimum Inhibitory Concentration
Outline: as §1

Enterobacter cloacae 963 = test: Antibacterial activity, agar-dilution MIC, organism No. 24; settings: Enterobacter cloacae, 963; Organism No. 24, bouillon-agar; read-out: Minimum Inhibitory Concentration
Outline: as §1

[21] = test system: Micrococcus luteus ATCC 9341; test: Antibacterial activity, agar-dilution MIC, organism No. 25; settings: Micrococcus luteus, ATCC9341; Organism No. 25, bouillon-agar; read-out: Minimum Inhibitory Concentration
Outline: as §1

[22] = test system: Streptococcus pyogenes IFO 3340; test: Antibacterial activity, agar-dilution MIC, organism No. 26; settings: Streptococcus pyogenes, IFO3340; Organism No. 26, bouillon-agar; read-out: Minimum Inhibitory Concentration
Outline: as §1

[23] = test system: Streptococcus faecium IFO 3826; test: Antibacterial activity, agar-dilution MIC, organism No. 27; settings: Enterococcus faecium, IFO3826; Organism No. 27, bouillon-agar; read-out: Minimum Inhibitory Concentration
Outline: as §1

[24] = test system: Mycoplasma pneumoniae IID817; test: Antimycoplasmal activity, MIC by phenol red colour change, organism No. 28; settings: Mycoplasma, IID817; Organism No. 28, PPLO broth + 1% glucose, 37° C.; read-out: Minimum Inhibitory Concentration (MIC)
Method: Mycoplasma pneumoniae IID817 was used as the test microorganism in a culture medium prepared by adding 1% of glucose to "PPLO broth (manufactured by Difco Co.) liquid culture medium" at 37° C. with phenol red as an indicator, thereby culturing the test microorganism.

[25] = test system: Candida albicans IAM 4905; test: Antifungal activity, agar-dilution MIC, organism No. 29; settings: Candida albicans, IAM4905; Organism No. 29, bouillon-agar; read-out: Minimum Inhibitory Concentration
Outline: as §1

[26] = test system: Aspergillus niger IFO 6342; test: Antifungal activity, agar-dilution MIC, organism No. 30; settings: Aspergillus niger, IFO6342; Organism No. 30, bouillon-agar; read-out: Minimum Inhibitory Concentration
Outline: as §1

Row | Structure (SMILES) | MIC [1] [µg/mL] | MIC [2] [µg/mL] | MIC [3] [µg/mL] | MIC [4] [µg/mL] | MIC [5] [µg/mL] | MIC [6] [µg/mL] | MIC [7] [µg/mL] | MIC [8] [µg/mL] | MIC (Salmonella typhi 901) [µg/mL] | MIC [9] [µg/mL] | MIC [10] [µg/mL] | MIC [11] [µg/mL] | MIC [12] [µg/mL] | MIC [13] [µg/mL] | MIC [14] [µg/mL] | MIC [15] [µg/mL] | MIC [16] [µg/mL] | MIC [17] [µg/mL] | MIC [18] [µg/mL] | MIC (Proteus vulgaris OX-19) [µg/mL] | further results
1 | [C-]#[N+]C12CC3(/C=C/C(=O)Nc4ccc(N)cc4)OC3C1O2 (stereo not drawn) [compound 59] | 6.25 (≈ 22.1 µM) | 25 (≈ 88.2 µM) | 6.25 (≈ 22.1 µM) | 50 (≈ 176 µM) | 25 (≈ 88.2 µM) | 25 (≈ 88.2 µM) | 3.13 (≈ 11 µM) | 12.5 (≈ 44.1 µM) | 6.25 (≈ 22.1 µM) | 6.25 (≈ 22.1 µM) | 6.25 (≈ 22.1 µM) | 6.25 (≈ 22.1 µM) | 200 (≈ 706 µM) | 12.5 (≈ 44.1 µM) | > 200 | > 200 | > 200 | 3.13 (≈ 11 µM) | > 200 | 1.56 (≈ 5.51 µM) | MIC (Proteus vulgaris HX-19): 1.56 µg/mL (≈ 5.51 µM); MIC [19]: 200 µg/mL (≈ 706 µM); MIC [20]: > 200 µg/mL; MIC (Enterobacter cloacae 963): > 200 µg/mL; MIC [21]: 0.78 µg/mL (≈ 2.75 µM); MIC [22]: 6.25 µg/mL (≈ 22.1 µM); MIC [23]: 100 µg/mL (≈ 353 µM); MIC [24]: < 0.2 µg/mL; MIC [25]: 12.5 µg/mL (≈ 44.1 µM); MIC [26]: 12.5 µg/mL (≈ 44.1 µM)
2 | [C-]#[N+]C12CC3(/C=C/C(=O)OCc4cc([N+](=O)[O-])ccc4OC)OC3C1O2 (stereo not drawn) [Compound No. 16] | 6.25 (≈ 17.4 µM) | 6.25 (≈ 17.4 µM) | 6.25 (≈ 17.4 µM) | 200 (≈ 558 µM) | 200 (≈ 558 µM) | 200 (≈ 558 µM) | 50 (≈ 140 µM) | > 200 | 50 (≈ 140 µM) | 50 (≈ 140 µM) | 50 (≈ 140 µM) | > 200 | 100 (≈ 279 µM) | 25 (≈ 69.8 µM) | > 200 | > 200 | > 200 | 12.5 (≈ 34.9 µM) | > 200 | 50 (≈ 140 µM) | MIC (Proteus vulgaris HX-19): 3.13 µg/mL (≈ 8.74 µM); MIC [19]: 100 µg/mL (≈ 279 µM); MIC [20]: > 200 µg/mL; MIC (Enterobacter cloacae 963): > 200 µg/mL; MIC [21]: 0.1 µg/mL (≈ 0.279 µM); MIC [22]: 200 µg/mL (≈ 558 µM); MIC [23]: 6.25 µg/mL (≈ 17.4 µM); MIC [24]: 6.25 µg/mL; MIC [25]: 3.13 µg/mL (≈ 8.74 µM); MIC [26]: 6.25 µg/mL (≈ 17.4 µM)
3 | [C-]#[N+]C12CC3(/C=C/C(=O)OCc4cccc([N+](=O)[O-])c4)OC3C1O2 (stereo not drawn) [compound 14] | 200 (≈ 609 µM) | 200 (≈ 609 µM) | 200 (≈ 609 µM) | > 200 | > 200 | > 200 | 200 (≈ 609 µM) | > 200 | 200 (≈ 609 µM) | 200 (≈ 609 µM) | 200 (≈ 609 µM) | > 200 | > 200 | 200 (≈ 609 µM) | > 200 | > 200 | > 200 | 200 (≈ 609 µM) | > 200 | 200 (≈ 609 µM) | MIC (Proteus vulgaris HX-19): 12.5 µg/mL (≈ 38.1 µM); MIC [19]: > 200 µg/mL; MIC [20]: > 200 µg/mL; MIC (Enterobacter cloacae 963): > 200 µg/mL; MIC [21]: 0.78 µg/mL (≈ 2.38 µM); MIC [22]: > 200 µg/mL; MIC [23]: 200 µg/mL (≈ 609 µM); MIC [24]: 3.13 µg/mL; MIC [25]: 12.5 µg/mL (≈ 38.1 µM); MIC [26]: 25 µg/mL (≈ 76.2 µM)
